# Measured values from PubChem BioAssay AID2060903 (Molecular Pharmacology Branch, DTP, NCI, 2025).
# Tested on: 377384-186-R-J1-PDC complex spheroid viability
# Assay: Anticancer human tumor 377384-186-R-J1-PDC patient-derived pancreatic carcinoma cell line growth inhibition [RAS]
# Settings: for viability, T/C: stronger effect = lower value
# From the text: RAS pathway inhibitors in Combinations in Complex Spheroids
# A high-throughput screen of multi-cell type tumor spheroids was designed to identify active combinations of RAS pathway inhibitors and targeted small molecules. Complex spheroids include a stromal component modeled by human endothelial cells (HUVEC) and fibroblasts modeled by human mesenchymal stem cells (MSCs). The concentration ranges selected for each drug and investigational agent were based upon clinically achievable concentrations if the clinical Cmax of the agent was known.
# Compounds. The drugs and investigational agents: abemaciclib (NSC768073), cobimetinib (NSC768068), divarasib (GDC6063, NSC841802), docetaxel (NSC628503), GDC-1971 (RLY-1971, NSC841576), gemcitabine (NSC613327), inavolisib (NSC800729), ipatasertib (NSC767898), KB-0742 (NSC834161), MRTX-1133 (NSC836407), osimertinib (NSC779217), RMC-4630 (NSC839698), RMC-6236 (NSC851965), RMC-6291 (NSC852671), Ro-3306 (NSC812927), sapanisertib (NSC764658), SN-38 (NSC673596), staurosporine (NSC755774), SY5609 (NSC837396), and tovorafenib (DAY101, NSC766906), were obtained from the National Cancer Institute (NCI) Developmental Therapeutics Program Chemical Repository. The FDA-approved anticancer drug set is available from the NCI Developmental Therapeutics Program. […] The stock solutions were prepared in dimethyl sulfoxide (DMSO, Sigma-Aldrich, St. Louis, MO, cat. D2650) at 800-fold the tested concentration and stored at -70 degrees C prior to their use. All drugs and investigational agents were tested over a range starting from a high concentration at or near the clinical Cmax and decreasing in half-log increments. If the clinical Cmax for an agent had not been determined, the highest concentration tested was 10 microM.
# Cell Culture. All cells were maintained in an incubator at 37 degrees C and 5% CO2 with 95% humidity. The PDC lines were cultured according to standard operating procedures established by the NCI PDMR. All PDCs were thawed and cultured in Matrigel-coated flasks prepared with a working solution of 1X Ham's F-12 nutrient mix, without supplementation (Invitrogen, Waltham, MA, cat. 11765054), 100 U/mL penicillin-streptomycin (Invitrogen, cat. 15140122), and 2.5% Matrigel (Corning Inc., Corning, NY, cat. 354248) for the first three passages. The 362531-283-R-J2-PDC and 782815-120-R-J1-PDC lines were cultured in 6C/Colon 1B media, which includes advanced DMEM/F-12 (Thermo Fisher Scientific, cat. 12634028), 10 mM HEPES (Thermo Fisher Scientific, cat. 15630080), 1X GlutaMAX supplement (Thermo Fisher Scientific, cat. 35050061), 0.1 mg/mL primocin (InvivoGen, San Diego, CA, cat. ant-pm-2), 10% defined fetal bovine serum, heat inactivated (HyClone Laboratories Inc., Logan, UT, cat. SH30070.03HI), 50% L-WRN conditioned media (ATCC, cat. CRL-3276), 1.25 mM N-Acetyl-L-cysteine (Sigma-Aldrich, cat. A9165), 10 mM nicotinamide (Sigma-Aldrich, cat. N0636), 1X B-27 supplement (Thermo Fisher Scientific, cat. 17504044), 1X N-2 supplement (Thermo Fisher Scientific, cat. 17502048), 50 ng/mL human EGF (Thermo Fisher Scientific, cat. PHG0311), and 10 microM Y-27632 dihydrochloride (Tocris Bioscience, cat. 1254). The K12877-001-R-J1-PDC line was cultured in 6I media, which includes all 6C/Colon 1B media plus 10 ng/mL human FGF-10 (PeproTech, cat. 100-26), 1 ng/mL human FGF-2 (PeproTech, cat. 100-18B), 1 µM prostaglandin E2 (Tocris Bioscience, cat. 2296), […] hydrocortisone (Sigma-Aldrich, cat. H4001), and […] bovine insulin (Sigma-Aldrich, cat. I6634). The K86415-001-R-J1-PDC line was cultured in 6D media, which includes all 6C/Colon 1B media components minus the L-WRN conditioned media. The 485176-168-R4-J1-PDC was cultured in PANC media, which includes all 6C/Colon 1B media plus 100 ng/mL human FGF-10 (PeproTech, cat. 100-26), 500 nM SB-431542 (Selleckchem, cat. S1067), and 10 nM gastrin (Tocris Bioscience, cat. 3006). […]
# [1] = curve of first compound, second compound 0.000949 µM
# [2] = curve of first compound, second compound 0.003 µM
# [3] = curve of first compound, second compound 0.00949 µM
# [4] = curve of first compound, second compound 0.03 µM
# [5] = curve of first compound, second compound 0.0949 µM
# [6] = curve of first compound, second compound 0.3 µM
# [7] = second compound 0.000949 µM, first compound 0.00316 µM
# [8] = second compound 0.000949 µM, first compound 0.01 µM
# [9] = second compound 0.000949 µM, first compound 0.0316 µM
# [10] = second compound 0.000949 µM, first compound 0.1 µM
# [11] = second compound 0.003 µM, first compound 0.00316 µM
# [12] = second compound 0.003 µM, first compound 0.01 µM
# [13] = second compound 0.003 µM, first compound 0.0316 µM
# [14] = second compound 0.003 µM, first compound 0.1 µM
# [15] = second compound 0.00949 µM, first compound 0.00316 µM
# [16] = second compound 0.00949 µM, first compound 0.01 µM
# [17] = second compound 0.00949 µM, first compound 0.0316 µM
# [18] = second compound 0.00949 µM, first compound 0.1 µM
# [19] = second compound 0.03 µM, first compound 0.00316 µM
# [20] = second compound 0.03 µM, first compound 0.01 µM
# [21] = second compound 0.03 µM, first compound 0.0316 µM
# [22] = second compound 0.03 µM, first compound 0.1 µM
# [23] = second compound 0.0949 µM, first compound 0.00316 µM
# [24] = second compound 0.0949 µM, first compound 0.01 µM
# [25] = second compound 0.0949 µM, first compound 0.0316 µM
# [26] = second compound 0.0949 µM, first compound 0.1 µM
# [27] = second compound 0.3 µM, first compound 0.00316 µM
# [28] = second compound 0.3 µM, first compound 0.01 µM
# [29] = second compound 0.3 µM, first compound 0.0316 µM
# [30] = second compound 0.3 µM, first compound 0.1 µM
# 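Also: spheroids exposed to compounds for seven days before readout.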
structure (smiles),measurement,setting,value
CC1(C)CCC(Nc2ncc(C(F)(F)F)c(-c3c[nH]c4c(P(C)(C)=O)c(C#N)ccc34)n2)CN1 (stereo unspecified),"viability, T/C",compound 0.000949 µM,84% [middle of 4 runs]
same,"viability, T/C",compound 0.003 µM,59.5% [middle of 4 runs]
same,"viability, T/C",compound 0.00949 µM,30% [middle of 4 runs]
same,"viability, T/C",compound 0.03 µM,21.3% [middle of 4 runs]
same,"viability, T/C",compound 0.0949 µM,16.6% [middle of 4 runs]
same,"viability, T/C",compound 0.3 µM,16.1% [middle of 4 runs]
same,IC50,curve of compound,4.35 nM [middle of 4 runs]
Nc1ccn(C2OC(CO)C(O)C2(F)F)c(=O)n1 (stereo unspecified) + CCn1c(-c2cc(N3CCN(C)CC3)cnc2C(C)OC)c2c3cc(ccc31)-c1csc(n1)CC(NC(=O)C1CC1C)C(=O)N1CCCC(N1)C(=O)OCC(C)(C)C2,IC50,[1],< 3.16 nM
same,IC50,[2],< 3.16 nM
same,IC50,[3],< 3.16 nM
same,IC50,[4],< 3.16 nM
same,IC50,[5],< 3.16 nM
same,IC50,[6],< 3.16 nM
same,"viability, T/C",[7],41.1%
same,"viability, T/C",[8],18.4%
same,"viability, T/C",[9],4.12%
same,"viability, T/C",[10],3.96%
same,"viability, T/C","second compound 0.000949 µM, first compound 0.316 µM",3.39%
same,"viability, T/C","second compound 0.000949 µM, first compound 1 µM",3.44%
same,"viability, T/C",[11],19%
same,"viability, T/C",[12],8.01%
same,"viability, T/C",[13],5.2%
same,"viability, T/C",[14],2.62%
same,"viability, T/C","second compound 0.003 µM, first compound 0.316 µM",3.06%
same,"viability, T/C","second compound 0.003 µM, first compound 1 µM",2.55%
same,"viability, T/C",[15],4.2%
same,"viability, T/C",[16],3.81%
same,"viability, T/C",[17],3.02%
same,"viability, T/C",[18],2.45%
same,"viability, T/C","second compound 0.00949 µM, first compound 0.316 µM",2.8%
same,"viability, T/C","second compound 0.00949 µM, first compound 1 µM",2.63%
same,"viability, T/C",[19],2.29%
same,"viability, T/C",[20],3.33%
same,"viability, T/C",[21],2.15%
same,"viability, T/C",[22],2.11%
same,"viability, T/C","second compound 0.03 µM, first compound 0.316 µM",3.23%
same,"viability, T/C","second compound 0.03 µM, first compound 1 µM",2.21%
same,"viability, T/C",[23],2.1%
same,"viability, T/C",[24],2.03%
same,"viability, T/C",[25],1.97%
same,"viability, T/C",[26],1.8%
same,"viability, T/C","second compound 0.0949 µM, first compound 0.316 µM",1.92%
same,"viability, T/C","second compound 0.0949 µM, first compound 1 µM",1.8%
same,"viability, T/C",[27],1.98%
same,"viability, T/C",[28],2.16%
same,"viability, T/C",[29],1.73%
same,"viability, T/C",[30],1.47%
same,"viability, T/C","second compound 0.3 µM, first compound 0.316 µM",1.95%
same,"viability, T/C","second compound 0.3 µM, first compound 1 µM",2.17%
CC(C)n1nc(-c2ccc3oc(N)nc3c2)c2c(N)ncnc21 + CCn1c(-c2cc(N3CCN(C)CC3)cnc2C(C)OC)c2c3cc(ccc31)-c1csc(n1)CC(NC(=O)C1CC1C)C(=O)N1CCCC(N1)C(=O)OCC(C)(C)C2,IC50,[1],0.989 nM
same,IC50,[2],< 0.316 nM
same,IC50,[3],< 0.316 nM
same,IC50,[4],< 0.316 nM
same,IC50,[5],< 0.316 nM
same,IC50,[6],< 0.316 nM
same,"viability, T/C","second compound 0.000949 µM, first compound 0.000316 µM",48.6%
same,"viability, T/C","second compound 0.000949 µM, first compound 0.001 µM",57.8%
same,"viability, T/C",[7],35.5%
same,"viability, T/C",[8],26.4%
same,"viability, T/C",[9],16.2%
same,"viability, T/C",[10],10.3%
same,"viability, T/C","second compound 0.003 µM, first compound 0.000316 µM",20.1%
same,"viability, T/C","second compound 0.003 µM, first compound 0.001 µM",24.1%
same,"viability, T/C",[11],17.6%
same,"viability, T/C",[12],13.7%
same,"viability, T/C",[13],8.27%
same,"viability, T/C",[14],4.84%
same,"viability, T/C","second compound 0.00949 µM, first compound 0.000316 µM",4.46%
same,"viability, T/C","second compound 0.00949 µM, first compound 0.001 µM",4.86%
same,"viability, T/C",[15],4.1%
same,"viability, T/C",[16],5.4%
same,"viability, T/C",[17],4.11%
same,"viability, T/C",[18],2.39%
same,"viability, T/C","second compound 0.03 µM, first compound 0.000316 µM",2.29%
same,"viability, T/C","second compound 0.03 µM, first compound 0.001 µM",2.17%
same,"viability, T/C",[19],2.37%
same,"viability, T/C",[20],1.66%
same,"viability, T/C",[21],1.3%
same,"viability, T/C",[22],0.91%
same,"viability, T/C","second compound 0.0949 µM, first compound 0.000316 µM",1.81%
same,"viability, T/C","second compound 0.0949 µM, first compound 0.001 µM",2.1%
same,"viability, T/C",[23],2.12%
same,"viability, T/C",[24],1.18%
same,"viability, T/C",[25],0.96%
same,"viability, T/C",[26],0.58%
same,"viability, T/C","second compound 0.3 µM, first compound 0.000316 µM",1.71%
same,"viability, T/C","second compound 0.3 µM, first compound 0.001 µM",1.54%
same,"viability, T/C",[27],1.69%
same,"viability, T/C",[28],1.04%
same,"viability, T/C",[29],0.89%
same,"viability, T/C",[30],0.59%
